Results on four compounds are retold here after patent US12516022B2, “Derivatives of aryl hydrocarbon receptor agonists” (AZORA THERAPEUTICS, INC., priority 2021, dated 2026).

Series [1] is described as follows: Time course of conversion to indirubin in FaSSIF at 37° C.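 Also: test compound, about 1-3 mg in 5 mL FaSSIF, sampled and analysed by UPLC-MS with PDA UV (210-400 nm), QDa mass and evaporative light scattering detection.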 In kind it is physicochemical.
Series [2] is described as follows: Time course of conversion to indirubin in FaSSGF at 37° C.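 As to all read-outs here: compound incubated in fasted state simulated gastric fluid, species in samples quantified by UPLC-MS with UV (210–400 nm) and ELS detection.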 The class given is physicochemical. The conditions noted are these: FaSSGF (Example 4; table title prints FaSSIF) 37° C.; for Conversion to indirubin: over a 24 hour period.

On to `CN(C)C1CCN(CN2C(=O)/C(=C3\Nc4ccccc4C3=O)c3ccccc32)CC1` [drawing 256], for which the indirubin is 72% in series [1] (FaSSIF 37° C. 24 h); 61% in series [1] (FaSSIF 37° C., 15 min); 62% in series [1] (FaSSIF 37° C., 30 min); 58% in series [1] (FaSSIF 37° C., 1 h); 70% in series [1] (FaSSIF 37° C., 2 h). Besides, the indirubin methylene alcohol in series [1] (FaSSIF 37° C. 24 h) stood at 6%; in series [1] (FaSSIF 37° C., 15 min) it was 5%; in series [1] (FaSSIF 37° C., 30 min), 5%; in series [1] (FaSSIF 37° C., 1 h) it was 5%; in series [1] (FaSSIF 37° C., 2 h), 7%. Besides, the “starting material (prodrug compound)” value was 0% in series [1] (FaSSIF 37° C. 24 h); 30% in series [1] (FaSSIF 37° C., 15 min); 31% in series [1] (FaSSIF 37° C., 30 min); 32% in series [1] (FaSSIF 37° C., 1 h); 22% in series [1] (FaSSIF 37° C., 2 h). In addition, the Conversion to indirubin in series [1] (FaSSIF 37° C., over a 24 hour period) is 60-80%.

Turning to `O=C1/C(=C2/C(=O)N(COS(=O)(=O)O)c3ccccc32)Nc2ccccc21` [drawing 277], the indirubin in series [2] (15 min), in series [2] (30 min), in series [2] (2 h) and in series [2] (24 h) was 0% throughout. The indirubin methylene alcohol in series [2] (15 min) is given as 15%; in series [2] (30 min), 23%; in series [2] (2 h) it was 22%; in series [2] (24 h), 8%. Moreover, the “starting material (prodrug compound)” value in series [2] (15 min) amounted to 83%; in series [2] (30 min), 67%; in series [2] (2 h), 72%; in series [2] (24 h) it was 26%. Moreover, in series [2], the Conversion to indirubin is 0-20%.

Take `O=C1/C(=C2/C(=O)N(CN3CCCCC3)c3ccccc32)Nc2ccccc21` [drawing 269]: the indirubin in series [2] (15 min), in series [2] (30 min), in series [2] (1 h), in series [2] (2 h) and in series [2] (24 h) was 99% throughout. Besides, the indirubin methylene alcohol in series [2] (15 min), in series [2] (30 min), in series [2] (1 h), in series [2] (2 h) and in series [2] (24 h) was 0% in each case. In addition, the “starting material (prodrug compound)” value in series [2] (15 min), in series [2] (30 min), in series [2] (1 h), in series [2] (2 h) and in series [2] (24 h) was 1% in each case. In addition, the Conversion to indirubin in series [2] is recorded as 80-100%.

In the case of `CN(C)CCN(C)CN1C(=O)/C(=C2\Nc3ccccc3C2=O)c2ccccc21` [drawing 268], the indirubin in series [2] (15 min) came to 93%; in series [2] (30 min) it was 93%; in series [2] (1 h), 92%; in series [2] (2 h), 95%; in series [2] (24 h), 95%. In addition, the indirubin methylene alcohol worked out at 6% in series [2] (15 min); 6% in series [2] (30 min); 7% in series [2] (1 h); 1% in series [2] (2 h); 5% in series [2] (24 h). The “starting material (prodrug compound)” value in series [2] (15 min), in series [2] (30 min), in series [2] (1 h), in series [2] (2 h) and in series [2] (24 h) was 0% each time. Also, the Conversion to indirubin in series [2] is recorded as 80-100%.
